Experiments:
[1] = test system: Puccinia recondita f. Sp. Tritici; test: Fungicidal activity, wheat leaf disc preventative (brown rust); assay type: in vivo; conditions: foliar, 200 ppm in the applied formulation, wheat leaf segments cv. Kanzler, compared to untreated control, 7 to 9 days after application, read-out: disease control
Outline: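 Preventative leaf-segment test: spray application of diluted formulated compound on wheat cv. Kanzler, spore inoculation after 1 day. Percent control relative to untreated segments rated 7 to 9 days post-application, with incubation at 19° C, 75% relative humidity, 12 h photoperiod.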

[2] = test system: Puccinia recondita f. Sp. Tritici; test: Fungicidal activity, wheat leaf disc curative (brown rust); assay type: in vivo; conditions: foliar, 200 ppm in the applied formulation, wheat leaf segments cv. Kanzler, curative (applied 1 day after inoculation), compared to untreated control, 6 to 8 days after application, read-out: disease control
Outline: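 Curative leaf-segment test, cv. Kanzler: spore inoculation, dark storage 19° C/75% RH, compound spray 1 day post-inoculation. Then 12 h light/12 h dark, 19° C, 75% RH. Read-out: % disease control vs untreated check, 6–8 d after application.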

Phakopsora pachyrhizi = test: Fungicidal activity, soybean leaf disc preventative (Asian soybean rust); assay type: in vivo; conditions: foliar, 200 ppm in the applied formulation, soybean leaf disks, compared to untreated control, 12 to 14 days after application, read-out: disease control
Description: Leaf disks or leaf segments of various plant species are cut from plants grown in a greenhouse. The cut leaf disks or segments are placed in multiwell plates (24-well format) onto water agar. The leaf disks are sprayed with a test solution before (preventative) or after (curative) inoculation. Compounds to be tested are prepared as DMSO solutions (max. 10 mg/ml) which are diluted to the appropriate concentration with 0.025% Tween20 just before spraying. The inoculated leaf disks or segments are incubated under defined conditions (temperature, relative humidity, light, etc.) according to the respective test system. A single evaluation of disease level is carried out 3 to 14 days after inoculation, depending on the pathosystem. Percent disease control relative to the untreated check leaf disks or segments is then calculated.
Soybean leaf disks are placed on water agar in multiwell plates (24-well format) and sprayed with the formulated test compound diluted in water. One day after application leaf discs are inoculated by spraying a spore suspension on the lower leaf surface. After an incubation period in a climate cabinet of 24-36 hours in darkness at 20° C. and 75% rh leaf disc are kept at 20° C. with 12 h light/day and 75% rh. The activity of a compound is assessed as percent disease control compared to untreated when an appropriate level of disease damage appears in untreated check leaf disks (12 to 14 days after application).
The following compounds at 200 ppm in the applied formulation give at least 80% disease control in this test when compared to untreated control leaf disks under the same conditions, which show extensive disease development.

[3] = test system: Glomerella lacenarium (Colletotrichum lacenarium); test: Fungicidal activity, liquid culture, cucumber preventative (anthracnose); assay type: cell-based; conditions: 20 ppm in the applied formulation, liquid culture in PDB, inhibition of growth measured photometrically 3 to 4 days after application, compared to untreated control, read-out: disease control
Outline: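 PDB broth seeded with cryo-stored conidia, added onto compound (DMSO solution) in 96-well plates; 24° C.; photometric growth read at 3–4 d post-application; % inhibition vs untreated check.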

`O=C(CC1CC1)NCc1ccc(-c2noc(C(F)(F)F)n2)s1` [Compound 3.10, 2-cyclopropyl-N-[[5-[5-(trifluoromethyl)-1,2,4-oxadiazol-3-yl]-2-thienyl]methyl]acetamide] gave a pest or weed control at 200 ppm [1] of at least 80%, a pest or weed control at 200 ppm [2] of at least 80% and a pest or weed control at 200 ppm (Phakopsora pachyrhizi) of at least 80%. It also gave an inhibition of growth at 20 ppm [3] of at least 80%.
Molecule `COC(C)C(=O)NCc1ccc(-c2noc(C(F)(F)F)n2)s1` (centres unmarked) [Compound 2.6, 2-methoxy-N-[[5-[5-(trifluoromethyl)-1,2,4-oxadiazol-3-yl]-2-thienyl]methyl]propanamide] has a pest or weed control at 200 ppm [1] of at least 80%, a pest or weed control at 200 ppm [2] of at least 80% and a pest or weed control at 200 ppm (Phakopsora pachyrhizi) of at least 80%. The inhibition of growth at 20 ppm [3] was at least 80%.
Work on `CN(Cc1ccc(-c2noc(C(F)(F)F)n2)s1)S(=O)(=O)Cc1ccccc1` [Compound 6.22, N-methyl-1-phenyl-N-[[5-[5-(trifluoromethyl)-1,2,4-oxadiazol-3-yl]-2-thienyl]methyl]methanesulfonamide] yielded a pest or weed control at 200 ppm [1] of at least 80%, a pest or weed control at 200 ppm (Phakopsora pachyrhizi) of at least 80% and an inhibition of growth at 20 ppm [3] of at least 80%.
Work on `CCC(=O)N(Cc1ccc(-c2noc(C(F)(F)F)n2)s1)C(C)C` [Compound 4.46, N-isopropyl-N-[[5-[5-(trifluoromethyl)-1,2,4-oxadiazol-3-yl]-2-thienyl]methyl]propanamide] yielded a pest or weed control at 200 ppm [2] of at least 80%, a pest or weed control at 200 ppm (Phakopsora pachyrhizi) of at least 80% and an inhibition of growth at 20 ppm [3] of at least 80%.
`CC(=O)N(Cc1ccc(-c2noc(C(F)(F)F)n2)s1)C(C)C` [Compound 4.51, N-isopropyl-N-[[5-[5-(trifluoromethyl)-1,2,4-oxadiazol-3-yl]-2-thienyl]methyl]acetamide] was tested, and the pest or weed control at 200 ppm [2] was at least 80%, the pest or weed control at 200 ppm (Phakopsora pachyrhizi) was at least 80% and the inhibition of growth at 20 ppm [3] was at least 80%.
For `CCCS(=O)(=O)N(CC)Cc1ccc(-c2noc(C(F)(F)F)n2)s1` [Compound 6.20, N-ethyl-N-[[5-[5-(trifluoromethyl)-1,2,4-oxadiazol-3-yl]-2-thienyl]methyl]propane-1-sulfonamide], the pest or weed control at 200 ppm [1] was at least 80%, the pest or weed control at 200 ppm (Phakopsora pachyrhizi) was at least 80% and the inhibition of growth at 20 ppm [3] was at least 80%.
`CCN(Cc1ccc(-c2noc(C(F)(F)F)n2)s1)S(=O)(=O)N(C)C` [Compound 6.18, N-(dimethylsulfamoyl)-N-[[5-[5-(trifiuoromethyl)-1,2,4-oxadiazol-3-yl]-2-thienyl]methyl]ethanamine] was tested, and the pest or weed control at 200 ppm [1] was at least 80%, the pest or weed control at 200 ppm (Phakopsora pachyrhizi) was at least 80% and the inhibition of growth at 20 ppm [3] was at least 80%.
In the case of `CCN(Cc1ccc(-c2noc(C(F)(F)F)n2)s1)S(=O)(=O)CCOC` [Compound 6.12, N-ethyl-2-methoxy-N-[[5-[5-(trifluoromethyl)-1,2,4-oxadiazol-3-yl]-2-thienyl]methyl]ethanesulfonamide], the pest or weed control at 200 ppm [1] is reported as at least 80%, the pest or weed control at 200 ppm (Phakopsora pachyrhizi) is reported as at least 80% and the inhibition of growth at 20 ppm [3] is reported as at least 80%.
`CCN(Cc1ccc(-c2noc(C(F)(F)F)n2)s1)C(C)=O` [Compound 4.31, N-ethyl-N-[[5-[5-(trifluoromethyl)-1,2,4-oxadiazol-3-yl]-2-thienyl]methyl]acetamide] was tested, and the pest or weed control at 200 ppm [1] was at least 80%, the pest or weed control at 200 ppm (Phakopsora pachyrhizi) was at least 80% and the inhibition of growth at 20 ppm [3] was at least 80%.
`CCN(Cc1ccc(-c2noc(C(F)(F)F)n2)s1)C(=O)COC` [Compound 4.22, N-ethyl-2-methoxy-N-[[5-[5-(trifluoromethyl)-1,2,4-oxadiazol-3-yl]-2-thienyl]methyl]acetamide] was tested, and the pest or weed control at 200 ppm [1] was at least 80%, the pest or weed control at 200 ppm (Phakopsora pachyrhizi) was at least 80% and the inhibition of growth at 20 ppm [3] was at least 80%.
`CC(=O)NCC(=O)NCc1ccc(-c2noc(C(F)(F)F)n2)s1` [Compound 2.2, 2-acetamido-N-[[5-[5-(trifluoromethyl)-1,2,4-oxadiazol-3-yl]-2-thienyl]methyl]acetamide] was tested, and the pest or weed control at 200 ppm (Phakopsora pachyrhizi) was at least 80%.
`CN(Cc1ccc(-c2noc(C(F)(F)F)n2)s1)C(=O)N1CCCO1` [Compound 5.56, N-methyl-N-[[5-[5-(trifluoromethyl)-1,2,4-oxadiazol-3-yl]-2-thienyl]methyl]isoxazolidine-2-carboxamide] showed a pest or weed control at 200 ppm [1] of at least 80%, a pest or weed control at 200 ppm (Phakopsora pachyrhizi) of at least 80% and an inhibition of growth at 20 ppm [3] of at least 80%.
`CCN(Cc1ccc(-c2noc(C(F)(F)F)n2)s1)S(=O)(=O)CC` [Compound 6.14, N-ethyl-N-[[5-[5-(trifluoromethyl)-1,2,4-oxadiazol-3-yl]-2-thienyl]methyl]ethanesulfonamide] gave a pest or weed control at 200 ppm (Phakopsora pachyrhizi) of at least 80% and an inhibition of growth at 20 ppm [3] of at least 80%.
`O=C(C1CC1)N(Cc1ccc(-c2noc(C(F)(F)F)n2)s1)OCC(F)F` [Compound 5.7, N-(2,2-difluoroethoxy)-N-[[5-[5-(trifluoromethyl)-1,2,4-oxadiazol-3-yl]-2-thienyl]methyl]cyclopropanecarboxamide] gave a pest or weed control at 200 ppm [1] of at least 80%, a pest or weed control at 200 ppm [2] of at least 80% and an inhibition of growth at 20 ppm [3] of at least 80%.
Work on `CC(C)C(=O)N(Cc1ccc(-c2noc(C(F)(F)F)n2)s1)C1CC1` [Compound 4.3, N-cyclopropyl-2-methyl-N-[[5-[5-(trifluoromethyl)-1,2,4-oxadiazol-3-yl]-2-thienyl]methyl]propanamide] yielded a pest or weed control at 200 ppm [1] of at least 80%, a pest or weed control at 200 ppm [2] of at least 80% and an inhibition of growth at 20 ppm [3] of at least 80%.
Work on `CCN(Cc1ccc(-c2noc(C(F)(F)F)n2)s1)C(=O)CC(F)(F)F` [Compound 4.30, N-ethyl-3,3,3-trifluoro-N-[[5-[5-(trifluoromethyl)-1,2,4-oxadiazol-3-yl]-2-thienyl]methyl]propanamide] yielded a pest or weed control at 200 ppm [2] of at least 80%, a pest or weed control at 200 ppm (Phakopsora pachyrhizi) of at least 80% and an inhibition of growth at 20 ppm [3] of at least 80%.
For `CC1CC1C(=O)N(Cc1ccc(-c2noc(C(F)(F)F)n2)s1)OCC(F)F` (centres unmarked) [Compound 5.50, N-(2,2-difluoroethoxy)-2-methyl-N-[[5-[5-(trifluoromethyl)-1,2,4-oxadiazol-3-yl]-2-thienyl]methyl]cyclopropanecarboxamide], the pest or weed control at 200 ppm [1] was at least 80%, the pest or weed control at 200 ppm [2] was at least 80% and the inhibition of growth at 20 ppm [3] was at least 80%.
Molecule `CCN(Cc1ccc(-c2noc(C(F)(F)F)n2)s1)C(=O)N(CCOC)CCOC` [Compound 4.74, 1-ethyl-3,3-bis(2-methoxyethyl)-1-[[5-[5-(trifluoromethyl)-1,2,4-oxadiazol-3-yl]-2-thienyl]methyl]urea] has a pest or weed control at 200 ppm [1] of at least 80%, a pest or weed control at 200 ppm [2] of at least 80% and an inhibition of growth at 20 ppm [3] of at least 80%.
`CCCC(=O)N(Cc1ccc(-c2noc(C(F)(F)F)n2)s1)OCC(F)F` [Compound 4.63, N-(2,2-difluoroethoxy)-N-[[5-[5-(trifluoromethyl)-1,2,4-oxadiazol-3-yl]-2-thienyl]methyl]butanamide] showed a pest or weed control at 200 ppm [1] of at least 80%, a pest or weed control at 200 ppm [2] of at least 80% and an inhibition of growth at 20 ppm [3] of at least 80%.
`CC1CC1C(=O)N(Cc1ccc(-c2noc(C(F)(F)F)n2)s1)C1CC1` (centres unmarked) [Compound 5.43, N-cyclopropyl-2-methyl-N-[[5-[5-(trifluoromethyl)-1,2,4-oxadiazol-3-yl]-2-thienyl]methyl]cyclopropanecarboxamide] gave a pest or weed control at 200 ppm [1] of at least 80%, a pest or weed control at 200 ppm [2] of at least 80% and an inhibition of growth at 20 ppm [3] of at least 80%.
`CN(Cc1ccc(-c2noc(C(F)(F)F)n2)s1)C(=O)N1CCC2(CC2)C1` [Compound 5.55, N-methyl-N-[[5-[5-(trifluoromethyl)-1,2,4-oxadiazol-3-yl]-2-thienyl]methyl]-5-azaspiro[2.4]heptane-5-carboxamide] gave a pest or weed control at 200 ppm [1] of at least 80%, a pest or weed control at 200 ppm [2] of at least 80% and an inhibition of growth at 20 ppm [3] of at least 80%.
With `CON(Cc1ccc(-c2noc(C(F)(F)F)n2)s1)C(=O)C(C)C` [Compound 1.26, N-methoxy-2-methyl-N-[[5-[5-(trifluoromethyl)-1,2,4-oxadiazol-3-yl]-2-thienyl]methyl]propanamide] the pest or weed control at 200 ppm [1] was at least 80%, the pest or weed control at 200 ppm (Phakopsora pachyrhizi) was at least 80% and the inhibition of growth at 20 ppm [3] was at least 80%.
`COCCCC(=O)N(Cc1ccc(-c2noc(C(F)(F)F)n2)s1)OCC(F)F` [Compound 4.67, N-(2,2-difluoroethoxy)-4-methoxy-N-[[5-[5-(trifluoromethyl)-1,2,4-oxadiazol-3-yl]-2-thienyl]methyl]butanamide] showed a pest or weed control at 200 ppm [1] of at least 80%, a pest or weed control at 200 ppm [2] of at least 80% and an inhibition of growth at 20 ppm [3] of at least 80%.

From patent US20200187502A1, “MICROBIOCIDAL OXADIAZOLE DERIVATIVES” (SYNGENTA PARTICIPATIONS AG, priority 2017, published 2020)
